# Reference: US10385022B2, “3-amino-pyridines as GPBAR1 agonists” (HOFFMANN-LA ROCHE INC., priority 2011, dated 2019)
# Target: human GPBAR1 receptor (Homo sapiens (Human), UniProt Q8TDU6)
# Experiment: functional cAMP assay in CHO-dhfr(minus) cells expressing human GPBAR1 receptors
# Format: cell-based
# Conditions: CHO-dhfr(minus) cells expressing human GPBAR1, 30 min at 30° C.
# Procedure, shortened: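 CHO-dhfr- cells were transfected with human GPBAR1, and a clone was chosen by cAMP response to lithocholic acid. EC50 values come from the cAMP read-out; specificity was checked in non-transfected CHO cells.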
# Chain of human GPBAR1 receptor (Q8TDU6 whole entry): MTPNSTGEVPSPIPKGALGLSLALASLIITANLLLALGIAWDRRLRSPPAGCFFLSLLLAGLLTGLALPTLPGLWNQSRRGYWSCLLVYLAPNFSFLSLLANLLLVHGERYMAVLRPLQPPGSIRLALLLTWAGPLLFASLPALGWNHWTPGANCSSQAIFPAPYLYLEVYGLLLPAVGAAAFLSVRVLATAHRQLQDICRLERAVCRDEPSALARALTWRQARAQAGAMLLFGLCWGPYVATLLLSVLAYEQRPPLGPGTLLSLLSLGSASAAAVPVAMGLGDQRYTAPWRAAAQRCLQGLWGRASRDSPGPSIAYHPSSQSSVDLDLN
row,Structure (SMILES),EC50 [µM]
1,"CS(=O)(=O)c1cc(C(=O)N(CC(F)(F)F)c2cnccc2-c2ccccc2OC(F)(F)F)cc(C(F)(F)F)c1 [Example 298, 3-Methanesulfonyl-N-(2,2,2-trifluoro-ethyl)-N-[4-(2-trifluoromethoxy-phenyl)-pyridin-3-yl]-5-trifluoromethyl-benzamide]",0.788
2,"Cc1cc(-c2ccccc2Cl)c(N(CC(F)(F)F)C(=O)c2cc(C(F)(F)F)cc(S(C)(=O)=O)c2)cn1 [Example 300, N-[4-(2-Chloro-phenyl)-6-methyl-pyridin-3-yl]-3-methanesulfonyl-N-(2,2,2-trifluoro-ethyl)-5-trifluoromethyl-benzamide]",0.831
3,"COc1cc(F)ccc1-c1cc(C)ncc1N(C)C(=O)c1cc(Cl)cc(S(C)(=O)=O)c1 [Example 301, 3-Chloro-N-[4-(4-fluoro-2-methoxy-phenyl)-6-methyl-pyridin-3-yl]-5-methanesulfonyl-N-methyl-benzamide]",0.219
4,"COc1cc(F)ccc1-c1cc(C)ncc1N(C)C(=O)c1cc(C(F)(F)F)cc(S(=O)(=O)N2CCOCC2)c1 [Example 302, N-[4-(4-Fluoro-2-methoxy-phenyl)-6-methyl-pyridin-3-yl]-N-methyl-3-(morpholine-4-sulfonyl)-5-trifluoromethyl-benzamide]",> 10
5,"COc1cc(F)ccc1-c1cc(C)ncc1N(C)C(=O)c1cc(Br)cc(C(F)(F)F)c1 [Example 303, 3-Bromo-N-[4-(4-fluoro-2-methoxy-phenyl)-6-methyl-pyridin-3-yl]-N-methyl-5-trifluoromethyl-benzamide]",0.018
6,"COc1cc(F)ccc1-c1ccncc1N(C)C(=O)c1cc(C(F)(F)F)cc(S(=O)(=O)N2CCS(=O)(=O)CC2)c1 [Example 304, 3-(1,1-Dioxo-thiomorpholine-4-sulfonyl)-N-[4-(4-fluoro-2-methoxy-phenyl)-pyridin-3-yl]-N-methyl-5-trifluoromethyl-benzamide]",0.015
7,"COc1cc(F)ccc1-c1cc(C)ncc1N(C)C(=O)c1cc(SC2COC2)cc(C(F)(F)F)c1 [Example 310, N-[4-(4-Fluoro-2-methoxy-phenyl)-6-methyl-pyridin-3-yl]-N-methyl-3-(oxetan-3-ylsulfanyl)-5-trifluoromethyl-benzamide]",0.041
8,"COc1cc(F)ccc1-c1cc(C)ncc1N(C)C(=O)c1cc(SCCCCC(=O)O)cc(C(F)(F)F)c1 [Example 312, 5-(3-{[4-(4-Fluoro-2-methoxy-phenyl)-6-methyl-pyridin-3-yl]-methyl-carbamoyl}-5-trifluoromethyl-phenylsulfanyl)-pentanoic acid]",2.42
9,"CN(C(=O)c1cc(C(F)(F)F)cc(S(C)(=O)=O)c1)c1cnccc1-c1cccnc1Cl [Example 313, N-(2-Chloro-[3,4′]bipyridinyl-3′-yl)-3-methanesulfonyl-N-methyl-5-trifluoromethyl-benzamide]",1.23
10,"COc1cc(F)ccc1-c1cc(C)ncc1N(C)C(=O)c1cc(C(F)(F)F)cc(S(=O)(=O)C2COC2)c1 [Example 314, N-[4-(4-Fluoro-2-methoxy-phenyl)-6-methyl-pyridin-3-yl]-N-methyl-3-(oxctane-3-sulfonyl)-5-trifluoromethyl-benzamide]",0.115
11,"COc1cc(F)ccc1-c1cc(C)ncc1N(C)C(=O)c1cc(SCCCCC(=O)NCC(=O)O)cc(C(F)(F)F)c1 [Example 315, [5-(3-{[4-(4-Fluoro-2-methoxy-phenyl)-6-methyl-pyridin-3-yl]-methyl-carbamoyl}-5-trifluoromethyl-phenylsulfanyl)-pentanoylamino]-acetic acid]",0.451
12,"COc1cc(F)c(Cl)cc1-c1cc(C)ncc1N(C)C(=O)c1cc(C(F)(F)F)cc(S(=O)(=O)CCCCC(=O)O)c1 [Example 316, 5-(3-{[4-(5-Chloro-4-fluoro-2-methoxy-phenyl)-6-methyl-pyridin-3-yl]-methyl-carbamoyl}-5-trifluoromethyl-benzenesulfonyl)-pentanoic acid]",0.926
13,"COc1cc(F)ccc1-c1cc(C)ncc1N(C)C(=O)c1cc(C(F)(F)F)cc(S(=O)(=O)CCCCC(=O)NCC(=O)O)c1 [Example 317, [5-(3-{[4-(4-Fluoro-2-methoxy-phenyl)-6-methyl-pyridin-3-yl]-methyl-carbamoyl}-5-trifluoromethyl-benzenesulfonyl)-pentanoylamino]-acetic acid]",0.418
14,"Cc1cc(-c2ccccc2OC2COC2)c(N(C)C(=O)c2cc(C(F)(F)F)cc(S(C)(=O)=O)c2)cn1 [Example 318, 3-Methanesulfonyl-N-methyl-N-{6-methyl-4-[2-(oxetan-3-yloxy)-phenyl]-pyridin-3-yl}-5-trifluoromethyl-benzamide]",1.11
15,"CN(C(=O)c1cc(C(F)(F)F)cc(S(C)(=O)=O)c1)c1cnccc1-c1cccnc1OC1CN(C(=O)OC(C)(C)C)C1 [Example 320, 3-{3′-[(3-Methanesulfonyl-5-trifluoromethyl-benzoyl)-methyl-amino]-[3,4′]bipyridinyl-2-yloxy}-azetidine-1-carboxylic acid tert-butyl ester]",2.72
16,"Cc1cc(-c2ccccc2OCC2COC2)c(N(C)C(=O)c2cc(C(F)(F)F)cc(S(C)(=O)=O)c2)cn1 [Example 321, 3-Methanesulfonyl-N-methyl-N-{6-methyl-4-[2-(oxetan-3-ylmethoxy)-phenyl]-pyridin-3-yl}-5-trifluoromethyl-benzamide]",1.89
17,"CN(C(=O)c1cc(C(F)(F)F)cc(C(F)(F)F)c1)c1cnccc1-c1ccccc1 [Example 322, N-Methyl-N-(4-phenyl-pyridin-3-yl)-3,5-bis-trifluoromethyl-benzamide]",0.011
18,"CN(C(=O)c1cc(C(F)(F)F)cc(S(C)(=O)=O)c1)c1cnccc1-c1ccccc1 [Example 323, 3-Methanesulfonyl-N-methyl-N-(4-phenyl-pyridin-3-yl)-5-trifluoromethyl-benzamide]",0.104

# Results, then the compound that gave them:
row,EC50 [µM],Structure (SMILES)
1,0.445,"Cc1c(F)cccc1-c1ccncc1N(C)C(=O)c1cc(C(F)(F)F)cc(S(C)(=O)=O)c1 [Example 295, N-[4-(3-Fluoro-2-methyl-phenyl)-pyridin-3-yl]-3-methanesulfonyl-N-methyl-5-trifluoromethyl-benzamide]"
2,1.33,"CS(=O)(=O)c1cc(C(=O)N(CC(N)=O)c2cnccc2-c2ccccc2Cl)cc(C(F)(F)F)c1 [Example 296, N-Carbamoylmethyl-N-[4-(2-chloro-phenyl)-pyridin-3-yl]-3-methanesulfonyl-5-trifluoromethyl-benzamide]"
3,0.521,"COC(=O)CN(C(=O)c1cc(C(F)(F)F)cc(S(C)(=O)=O)c1)c1cnccc1-c1cc(F)ccc1OC [Example 297, [[4-(5-Fluoro-2-methoxy-phenyl)-pyridin-3-yl]-(3-methanesulfonyl-5-trifluoromethyl-benzoyl)-amino]-acetic acid methyl ester]"
4,0.952,"COc1cc(F)ccc1-c1ccncc1N(C[C@@H]1CCCOC1)C(=O)c1cc(C(F)(F)F)cc(S(C)(=O)=O)c1 [Example 299, (+)-N-[4-(4-Fluoro-2-methoxy-phenyl)-pyridin-3-yl]-3-methanesulfonyl-N-[1-(tetrahydro-pyran-3-yl)methyl]-5-trifluoromethyl-benzamide]"
5,0.005,"COc1cc(F)ccc1-c1ccncc1N(C)C(=O)c1cc(C(F)(F)F)cc(S(=O)(=O)N2CC3(COC3)C2)c1 [Example 305, N-[4-(4-Fluoro-2-methoxy-phenyl)-pyridin-3-yl]-N-methyl-3-(2-oxa-6-aza-spiro[3.3]heptane-6-sulfonyl)-5-trifluoromethyl-benzamide]"
6,0.19,"COc1cc(F)ccc1-c1ccncc1N(CCS(C)(=O)=O)C(=O)c1cc(C(F)(F)F)cc(S(C)(=O)=O)c1 [Example 306, N-[4-(4-Fluoro-2-methoxy-phenyl)-pyridin-3-yl]-3-methanesulfonyl-N-(2-methanesulfonyl-ethyl)-5-trifluoromethyl-benzamide]"
7,0.3,"COc1cc(F)ccc1-c1cc(C)ncc1N(CC(F)(F)F)C(=O)c1cc(C(F)(F)F)cc(S(C)(=O)=O)c1 [Example 307, N-[4-(4-Fluoro-2-methoxy-phenyl)-6-methyl-pyridin-3-yl]-3-methanesulfonyl-N-(2,2,2-trifluoro-ethyl)-5-trifluoromethyl-benzamide]"
8,0.936,"CS(=O)(=O)CCN(C(=O)c1cc(C(F)(F)F)cc(S(C)(=O)=O)c1)c1cnccc1-c1ccccc1OC(F)(F)F [Example 308, 3-Methanesulfonyl-N-(2-methanesulfonyl-ethyl)-N-[4-(2-trifluoromethoxy-phenyl)-pyridin-3-yl]-5-trifluoromethyl-benzamide]"
9,0.273,"COc1ccc(F)cc1-c1ccncc1N(CC(N)=O)C(=O)c1cc(C(F)(F)F)cc(S(C)(=O)=O)c1 [Example 309, N-Carbamoylmethyl-N-[4-(5-fluoro-2-methoxy-phenyl)-pyridin-3-yl]-3-methanesulfonyl-5-trifluoromethyl-benzamide]"
10,0.081,"CS(=O)(=O)c1cc(C(=O)N(CC#N)c2cnccc2-c2ccccc2OC(F)(F)F)cc(C(F)(F)F)c1 [Example 311, N-Cyanomethyl-3-methanesulfonyl-N-[4-(2-trifluoromethoxy-phenyl)-pyridin-3-yl]-5-trifluoromethyl-benzamide]"
11,3.34,"CS(=O)(=O)c1cc(C(=O)N(CC(N)=O)c2cnccc2-c2ccccc2OC(F)(F)F)cc(C(F)(F)F)c1 [Example 319, N-Carbamoylmethyl-3-methanesulfonyl-N-[4-(2-trifluoromethoxy-phenyl)-pyridin-3-yl]-5-trifluoromethyl-benzamide]"
